According to the supplement of paper PMC10721915:

What was measured:
Test in all cases: relative cell growth vs untreated control (GI, NCI-DTP normalisation with time-zero) (fraction of control growth); higher = more growth / less inhibition
Conditions in all cases: treatment time: 120 h
A549 = tested on: A549
Experimental: (§1)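 Cancer cell lines in 96-well plates were treated 48 h after seeding with M4076 (ATM inhibitor) and berzosertib (ATR inhibitor), alone or mixed, in 4-fold dilutions for 120 h. Protein was read by sulforhodamine B staining, background-subtracted and normalised NCI-DTP style to untreated control growth. Rows with one concentration equal to 0 are monotherapy.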

BXPC3 = tested on: BXPC3
Experimental: as §1

DU145 = tested on: DU145
Experimental: as §1

HT1080 = tested on: HT1080
Experimental: as §1

HT29 = tested on: HT29
Experimental: as §1

MDAMB436 = tested on: MDAMB436
Experimental: as §1

WSUNHL = tested on: WSUNHL
Experimental: as §1

COc1cc2ncc3c(c2cc1-c1cn(C)nc1C)n(-c1c(F)cncc1OC)c(=O)n3C [M4076] + CNCc1ccc(-c2cc(-c3nc(-c4ccc(S(=O)(=O)C(C)C)cc4)cnc3N)on2)cc1 [berzosertib]
relative cell growth
Conditions | A549 | BXPC3 | DU145 | HT29 | HT1080 | MDAMB436 | WSUNHL
concentration of first compound 0.0195 µM, concentration of partner 0 M | 1.18 | 1.17 | 1.09 | 1.3 | 1.1 | 1.1 | 1.22
concentration of first compound 0.0195 µM, concentration of partner 0.2 µM | 0.64 | 0.548 | 1.05 | 0.0171 | 0.762 | 0.856 | 1.48
concentration of first compound 0.0781 µM, concentration of partner 0 M | 1.22 | 1.25 | 1.12 | 1.23 | 0.574 | 1.15 | 1.26
concentration of first compound 0.0781 µM, concentration of partner 0.2 µM | 0.574 | 0.643 | 1.09 | 0.0537 | 0.753 | 0.625 | 1.47
concentration of first compound 0.313 µM, concentration of partner 0 M | 1.16 | 1.17 | 1.11 | 1.19 | 0.481 | 0.941 | 0.983
concentration of first compound 0.313 µM, concentration of partner 0.2 µM | 0.267 | 0.481 | 0.774 | 0.00799 | -0.0371 | 0.374 | 1.07
concentration of first compound 1 µM, concentration of partner 0 M | 0.924 | 0.952 | 0.98 | 0.888 | 0.54 | 0.753 | 0.649
concentration of first compound 1 µM, concentration of partner 0.0195 µM | 0.89 | 0.987 | 0.893 | 0.81 | 0.752 | 0.817 | 0.896
concentration of first compound 1 µM, concentration of partner 0.0781 µM | 0.431 | 0.78 | 0.862 | 0.27 | 0.155 | 0.574 | 0.716
concentration of first compound 1 µM, concentration of partner 0.313 µM | 0.0877 | 0.015 | 0.133 | -0.0312 | -0.168 | 0.148 | -0.00911
concentration of first compound 1 µM, concentration of partner 1.25 µM | 0.00284 | -0.096 | -0.0604 | -0.0506 | -0.178 | -0.0222 | -0.0958
concentration of first compound 1 µM, concentration of partner 5 µM | 0.00285 | -0.0967 | -0.0855 | -0.0437 | -0.234 | -0.02 | -0.11
concentration of first compound 1.25 µM, concentration of partner 0 M | 1.09 | 1.08 | 1.05 | 1.11 | 0.332 | 0.84 | 0.572
concentration of first compound 1.25 µM, concentration of partner 0.2 µM | 0.153 | 0.321 | 0.496 | 0.00308 | -0.114 | 0.292 | 0.294
concentration of first compound 5 µM, concentration of partner 0 M | 0.955 | 0.894 | 0.872 | 0.933 | 0.478 | 0.684 | 0.166
concentration of first compound 5 µM, concentration of partner 0.2 µM | 0.11 | 0.228 | 0.307 | -0.00294 | -0.101 | 0.206 | 0.0497
